From the supplement of paper PMC10307832

Tests used:
Test in all cases: relative viability (nuclei count vs DMSO), 5 days (fraction); higher = more cells survive
[1] = compound: NC(=O)[C@@H](CCC(F)(F)F)N(Cc1ccc(-c2ncon2)cc1F)S(=O)(=O)c1ccc(Cl)cc1 [Avagacestat] + CC(=O)c1c(C)c2cnc(Nc3ccc(N4CCNCC4)cn3)nc2n(C2CCCC2)c1=O [Palbociclib] (partner 0.5 µM)
Outline: (§1)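 Relative viability divides the nuclei count in treated wells by that in vehicle wells. Lung cancer cell lines were seeded in 1536-well plates, dosed by pin tool the next day, and fixed and stained after 5 days in one step with final 0.05% Triton X-100, 1% formaldehyde and 1 ug/ml Hoechst. Dosing was a single drug or a fixed anchor-drug dose plus five library-drug doses (not always all listed) in √10 steps, and values are medians of duplicate plates imaged at 4×.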

Avagacestat + Bortezomib = compound: NC(=O)[C@@H](CCC(F)(F)F)N(Cc1ccc(-c2ncon2)cc1F)S(=O)(=O)c1ccc(Cl)cc1 [Avagacestat] + CC(C)C[C@H](NC(=O)[C@H](Cc1ccccc1)NC(=O)c1cnccn1)B(O)O [Bortezomib] (partner 0.002 µM)
Outline: as §1

Avagacestat + Alpelisib = compound: NC(=O)[C@@H](CCC(F)(F)F)N(Cc1ccc(-c2ncon2)cc1F)S(=O)(=O)c1ccc(Cl)cc1 [Avagacestat] + Cc1nc(NC(=O)N2CCC[C@H]2C(N)=O)sc1-c1ccnc(C(C)(C)C(F)(F)F)c1 [Alpelisib] (partner 2 µM)
Outline: as §1

Avagacestat + Dasatinib = compound: NC(=O)[C@@H](CCC(F)(F)F)N(Cc1ccc(-c2ncon2)cc1F)S(=O)(=O)c1ccc(Cl)cc1 [Avagacestat] + Cc1nc(Nc2ncc(C(=O)Nc3c(C)cccc3Cl)s2)cc(N2CCN(CCO)CC2)n1 [Dasatinib] (partner 0.075 µM)
Outline: as §1

Row | Cell Line | relative viability ([1]; first compound 0.08 µM) | relative viability ([1]; first compound 0.253 µM) | relative viability ([1]; first compound 0.8 µM) | relative viability ([1]; first compound 2.53 µM) | relative viability ([1]; first compound 8 µM) | relative viability (Avagacestat + Bortezomib; first compound 0.08 µM) | relative viability (Avagacestat + Bortezomib; first compound 0.253 µM) | relative viability (Avagacestat + Bortezomib; first compound 0.8 µM) | relative viability (Avagacestat + Bortezomib; first compound 2.53 µM) | relative viability (Avagacestat + Bortezomib; first compound 8 µM) | relative viability (Avagacestat + Alpelisib; first compound 0.08 µM) | relative viability (Avagacestat + Alpelisib; first compound 0.253 µM) | relative viability (Avagacestat + Alpelisib; first compound 0.8 µM) | relative viability (Avagacestat + Alpelisib; first compound 2.53 µM) | relative viability (Avagacestat + Alpelisib; first compound 8 µM) | relative viability (Avagacestat + Dasatinib; first compound 0.08 µM) | relative viability (Avagacestat + Dasatinib; first compound 0.253 µM) | relative viability (Avagacestat + Dasatinib; first compound 0.8 µM) | relative viability (Avagacestat + Dasatinib; first compound 2.53 µM) | relative viability (Avagacestat + Dasatinib; first compound 8 µM)
1 | NCI-H520 | 0.21 | 0.23 | 0.198 | 0.194 | 0.201 | 0.728 | 0.555 | 0.679 | 0.48 | 0.334 | 1.16 | 0.868 | 0.74 | 0.7 | 0.715 | 0.267 | 0.16 | 0.158 | 0.168 | 0.162
2 | NCI-H1793 | 0.348 | 0.324 | 0.331 | 0.263 | 0.316 | – | – | – | – | – | 0.967 | 0.777 | 0.822 | 0.769 | 0.672 | 0.445 | 0.383 | 0.319 | 0.282 | 0.337
3 | NCI-H2347 | 0.398 | 0.481 | 0.409 | 0.445 | 0.462 | 1.1 | 0.914 | 0.935 | 0.862 | 0.79 | 1.15 | 1.08 | 1.12 | 0.957 | 1.02 | 0.292 | 0.292 | 0.369 | 0.297 | 0.331
4 | NCI-H2342 | 0.527 | 0.482 | 0.523 | 0.523 | 0.552 | – | – | – | – | – | – | – | – | – | – | 0.344 | 0.341 | 0.334 | 0.31 | 0.302
5 | NCI-H1395 | 0.675 | 0.64 | 0.594 | 0.486 | 0.593 | – | – | – | – | – | 0.938 | 0.996 | 0.879 | 1.05 | 0.943 | 0.412 | 0.405 | 0.416 | 0.372 | 0.442
6 | NCI-H1648 | 0.237 | 0.271 | 0.289 | 0.256 | 0.284 | – | – | – | – | – | – | – | – | – | – | – | – | – | – | –
7 | NCI-H596 | – | – | – | – | – | 0.956 | 1.13 | 1.13 | 1.14 | 0.823 | 0.584 | 0.482 | 0.479 | 0.466 | 0.491 | 0.592 | 0.651 | 0.654 | 0.451 | 0.648
8 | A549 | – | – | – | – | – | – | – | – | – | – | 1.02 | 0.99 | 0.694 | 0.673 | 0.771 | – | – | – | – | –
9 | ChaGo-K-1 | 1.05 | 1.01 | 0.933 | 0.887 | 0.798 | 1.02 | 0.914 | 1.14 | 1.32 | 1.06 | – | – | – | – | – | 0.616 | 0.641 | 0.628 | 0.551 | 0.608
10 | LK-2 | 0.949 | 0.818 | 0.64 | 0.542 | 0.824 | – | – | – | – | – | 1.51 | 1.61 | 0.949 | 1.02 | 1 | 0.26 | 0.224 | 0.247 | 0.271 | 0.267
11 | NCI-H1944 | 0.32 | 0.343 | 0.265 | 0.272 | 0.269 | – | – | – | – | – | 0.874 | 0.857 | 0.844 | 0.667 | 0.758 | 0.199 | 0.201 | 0.227 | 0.202 | 0.222
12 | NCI-H1299 | – | – | – | – | – | 1.03 | 1.01 | 1 | 1.01 | 0.991 | 1.1 | 1.18 | 1.08 | 1.02 | 0.886 | – | – | – | – | –
13 | SK-MES-1 | 0.318 | 0.342 | 0.329 | 0.307 | 0.32 | – | – | – | – | – | 0.992 | 0.948 | 0.741 | 0.892 | 0.457 | 0.33 | 0.301 | 0.394 | 0.247 | 0.364
14 | HCC-44 | 0.976 | 0.997 | 0.983 | 1.04 | 1.01 | 1.06 | 1.09 | 0.934 | 0.965 | 0.829 | 0.939 | 0.746 | 0.8 | 0.667 | 0.645 | – | – | – | – | –
15 | NCI-H1703 | – | – | – | – | – | 0.403 | 0.422 | 0.272 | 0.322 | 0.318 | 0.444 | 0.387 | 0.405 | 0.378 | 0.385 | – | – | – | – | –
16 | NCI-H2170 | 0.421 | 0.469 | 0.419 | 0.404 | 0.433 | – | – | – | – | – | 1.02 | 0.843 | 0.883 | 0.751 | 0.721 | 0.622 | 0.535 | 0.647 | 0.48 | 0.52
17 | NCI-H358 | 0.148 | 0.137 | 0.126 | 0.143 | 0.132 | – | – | – | – | – | 0.938 | 0.908 | 0.872 | 0.711 | 0.777 | 0.163 | 0.159 | 0.164 | 0.155 | 0.148
18 | NCI-H1650 | 0.318 | 0.241 | 0.406 | 0.331 | 0.351 | 0.212 | 0.232 | 0.196 | 0.211 | 0.21 | – | – | – | – | – | 0.37 | 0.35 | 0.272 | 0.304 | 0.346
19 | EBC-1 | – | – | – | – | – | 0.496 | 0.521 | 0.524 | 0.449 | 0.381 | 0.691 | 0.78 | 0.743 | 0.738 | 0.555 | – | – | – | – | –
20 | Calu-6 | – | – | – | – | – | 1.27 | 1.09 | 1.08 | 1.17 | 0.975 | 1.18 | 1.16 | 1.12 | 1.12 | 0.993 | – | – | – | – | –
21 | IA-LM | – | – | – | – | – | 1.39 | 1.28 | 0.823 | 0.855 | 1.25 | 1.09 | 1.62 | 1.74 | 1.43 | 1.16 | – | – | – | – | –
